Seven molecules from patent US20120274239A1, “METHOD OF MANUFACTURING ORGANIC ELECTROLUMINESCENCE DISPLAY DEVICE AND ELECTRONIC EQUIPMENT INCLUDING ORGANIC ELECTROLUMINESCENCE DISPLAY DEVICE MANUFACTURED BY THE MANUFACTURING METHOD” (CANON KABUSHIKI KAISHA, priority 2011, published 2012) can be followed below.

A short description of data set [1]: etching rate (dissolution rate) of a deposited layer in the IPA/water mixed solvent. Format: physicochemical. The settings on record: IPA 60 wt %; for etching rate: layer of the compound, polar solvent: IPA/water mixed solvent. The text has this:
In the present invention, a larger etching rate means a higher dissolution rate. In addition, a larger etching rate means a higher solubility of a layer having a material of interest in the solvent (polar solvent).
FIG. 3 is a graph illustrating thickness changes in the compound 1 and the compound A2 over an etching time. Here, FIG. 3 illustrates the results of the etching of the respective layers when a mixed solvent obtained by mixing isopropyl alcohol (IPA) and water so that IPA may account for 60 wt % (hereinafter, sometimes referred to as “IPA/water mixed solvent”) is used as a polar solvent.
On the other hand, the thickness of a layer (layer B) formed of the compound A2 as a heterocyclic compound reduces over time. When the etching rates of the respective layers are calculated with their etching conditions made identical to each other, the etching rate of the layer A is 0.008 nm/sec but the etching rate of the layer B is 0.87 nm/sec, that is, a ratio of the latter to the former is about 100.
Here, a ratio (n) between the etching rates of the uppermost layer (layer A) of the organic compound layer and the lowermost layer (layer B) of the release layer by the polar solvent used upon removal of the release layer under the same temperature conditions can be represented like the following equation.
Next, the photosensitive resin layer 41 was removed by performing dry etching with oxygen as a reactant gas under the conditions of a flow rate of 20 sccm, a pressure of 8 Pa, and an output of 150 W (FIG. 2L). Next, the release layer 30 was removed with a mixed solvent obtained by mixing water and IPA so that an IPA concentration was 60 wt % (FIG. 2M). It should be noted that as the etching rate of the compound (phenanthroline derivative represented by the formula (2)) constituting the release layer 30 in this example was 0.9 nm/sec, the release layer 30 was removed through immersion in the mixed solvent for 600 seconds. Next, vacuum heating was performed at 80° C. so that the solvent remaining on the organic compound layer was removed. It should be noted that the etching rate of the compound represented by the formula (1) serving as the uppermost layer of the organic compound layer placed in each sub-pixel for the polar solvent used for removing the release layer is about 0.0045 nm/sec, which is sufficiently small as compared with the etching rate of the release layer 30.

Data set [2] is described as follows: solubility in the IPA/water mixed solvent (FIG. 4). Format: physicochemical. The settings on record: IPA/water mixed solvent having an IPA concentration of 80 wt %. The text has this: The solubility of a compound as a constituent material for each layer in the IPA/water mixed solvent varies depending on the weight ratio of IPA in the mixed solvent. FIG. 4 is a graph illustrating the solubilities of the compound 1 (condensed polycyclic hydrocarbon compound) and the compound A2 (heterocyclic compound) in the IPA/water mixed solvent (polar solvent). Here, in the graph of FIG. 4, the axis of abscissa indicates the weight percent concentration of IPA in the IPA/water mixed solvent, and the axis of ordinate indicates the amount of the condensed polycyclic hydrocarbon compound or heterocyclic compound to dissolve in 1 g of the solvent.

Regarding `CC1(C)c2cc(-c3ccc4ccc5cccc6ccc3c4c56)ccc2-c2ccc(-c3ccc4ccc5cccc6ccc3c4c56)cc21` [compound 1], the etching rate in data set [1] is 0.008 nm/s; in data set [1] (listed as formula (1)) it was “about 0.0045 nm/sec”. Also, the “amount to dissolve in 1 g of the solvent” value in data set [2] came out at 5 µg.

Consider `CC1(C)c2ccccc2-c2ccc(-c3ccc4ccc5ccc(-c6ccc7c(c6)C(C)(C)c6ccccc6-7)nc5c4n3)cc21` [compound A2], for which the “etching rate ratio (n) of layer B (release layer) to layer A (uppermost organic compound layer)” value in data set [1] (compound A2 layer versus compound 1 layer, IPA/water mixed solvent, identical etching conditions) was “about 100”. Also, the etching rate was determined as 0.87 nm/s in data set [1] and 0.9 nm/s in data set [1] (listed as formula (2)). Also, in data set [2], the “amount to dissolve in 1 g of the solvent” value is 73 µg.

Molecule `c1ccc(-n2c(-c3cc(-c4nc5ccccc5n4-c4ccccc4)cc(-c4nc5ccccc5n4-c4ccccc4)c3)nc3ccccc32)cc1` [compound A7] registered an etching rate in data set [1] of 1.6 nm/s.

`c1ccc(-c2cc(-c3ccccc3)cc(-c3cccc(-c4cccc(-c5ccc6c7ccccc7c7ccccc7c6c5)c4)c3)c2)cc1` [compound B1] returned an etching rate in data set [1] of 1.3 nm/s.

As to `O=C1c2ccccc2OC2C=CC(c3cccc(-c4cccc(-c5cc(-c6cccc(-c7ccccc7)c6)cc(-c6cccc(-c7ccccc7)c6)c5)c4)c3)=CC12` (stereo not drawn) [compound Cl], the etching rate in data set [1] was 1.5 nm/s.

In data set [1], `O=S(=O)(Oc1ccc2cc(-c3ccc4ccccc4c3)ccc2c1)C(F)(F)F` [compound D6] had an etching rate of 2.5 nm/s.

Turning to `CC(C)(C)c1cc2ccc3ccc(B4OC(C)(C)C(C)(C)O4)c4ccc(c1)c2c34` [compound D8], the etching rate in data set [1] was 3.0 nm/s.
